Test results from patent US12129237B2, “Substituted diaminocarboxamide and diaminocarbonitrile pyrimidines, compositions thereof, and methods of treatment therewith” (SIGNAL PHARMACEUTICALS, LLC, priority 2011, dated 2024).

The molecules below were run against T1, JNK1 (Homo sapiens, UniProt P45983) (assay: JNK1 biochemical assays (one or more of: time resolved fluorescence, Z'-LYTE Cascade, radioactive)). Details: Table 2; JNK1 IC50 activity level; read-out: Act. Level.
T1 construct: purchased Carna Biosciences
T1 sequence (P45983 whole entry): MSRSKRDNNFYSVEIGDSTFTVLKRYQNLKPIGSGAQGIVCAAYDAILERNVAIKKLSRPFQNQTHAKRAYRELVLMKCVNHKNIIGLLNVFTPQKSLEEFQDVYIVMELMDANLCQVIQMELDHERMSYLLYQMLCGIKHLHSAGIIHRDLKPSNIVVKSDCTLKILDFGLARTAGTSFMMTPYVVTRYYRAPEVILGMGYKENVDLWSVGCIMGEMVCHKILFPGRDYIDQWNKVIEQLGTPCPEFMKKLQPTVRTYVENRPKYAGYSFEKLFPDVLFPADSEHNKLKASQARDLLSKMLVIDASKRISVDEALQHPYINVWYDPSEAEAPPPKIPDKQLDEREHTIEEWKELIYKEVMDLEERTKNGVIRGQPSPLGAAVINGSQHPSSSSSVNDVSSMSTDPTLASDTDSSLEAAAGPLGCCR
Description: JNK1 Assay. A 384-well time resolved fluorescence assay was used to monitor JNK1 activity. The JNK1 assay was run in the following assay buffer: 50 mM HEPES, 10 mM MgCl2, 1 mM EGTA, 2 mM DTT, and 0.01% Tween 20. To initiate the reaction 100 nM of ULight™-labeled 4EBP1 peptide (Perkin-Elmer) and 5 μM of ATP were mixed with 500 pM of JNK1 (Carna Biosciences), for a total assay volume of 20 μL in each well. The assay was incubated at room temperature for 1 h and terminated using a mixture of 30 mM EDTA and 4 nM Eu-anti-4EBP1, by adding 20 μL of stop solution to each well. Plates were read on a Perkin-Elmer Envision Reader.
JNK1 Assay. The JNK1 Z′-LYTE® Cascade kinase assay was run in the following buffer: 50 mM HEPES at pH 7.5, 0.01% BRIJ-35, 10 mM MgCl2, 1 mM EGTA, and 1 mM DTT. […] The assay was incubated at room temperature for 1 h. […] The data was then read on a fluorescence plate reader and analyzed.
JNK1 assay. The radioactive JNK kinase assay was carried out in a 96-well plate format at a final volume of 100 μL. […] JNK1 was diluted in the following dilution buffer (20 mM HEPES pH 7.6, 0.1 mM EDTA, 2.5 mM MgCl2, 0.004% (w/v) Triton X100, 2 μg/ml Leupeptin, 20 mM B-glycerol phosphate, 0.1 mM Na3VO4 dithiothreitol) and then pre-mixed with cJun diluted in the substrate solution buffer (20 mM HEPES pH 7.6, 50 mM NaCl, 0.1 mM EDTA, 2.5 mM MgCl2, 0.05% (w/v) Triton X100). […] The enzyme, substrate and inhibitor mixture was allowed to equilibrate at room temperature for 15 minutes. The reaction was started by the addition of 10 μL of 10×ATP in kinase buffer (130 mM MgCl2, 6 mM dithiothreitol, 150 mM para-nitrophenyl phosphate, 100 μCi/ml γ-[^33P]-ATP). Reactions were allowed to proceed for 60 minutes before precipitation of protein via trichloroacetic acid (7.2% TCA final). […] The precipitate was washed with Phosphate Buffered Saline and the amount of phosphate incorporated into cJun was quantified by scintillation counting using a Packard Topcount-NXT. All assays were conducted under conditions where phosphate incorporation was linear with respect to time and enzyme concentration.

Structure (SMILES)	IC50
C[C@@H](Nc1ncc(C(N)=O)c(N[C@@H]2CCC[C@H](O)C2)n1)c1ccc(F)cc1 [Example B-89, 2-((R)-1-(4-fluorophenyl)ethylamino)-4-((1R,3S)-3-hydroxycyclohexylamino)pyrimidine-5-carboxamide]	< 200 nM
NC(=O)c1cnc(NCc2cccnc2)nc1Nc1ccccc1 [Example B-51, 4-(phenylamino)-2-(pyridin-3-ylmethylamino)pyrimidine-5-carboxamide]	200 to 800 nM
CS(=O)(=O)N[C@H]1CC[C@H](Nc2ncc(C(N)=O)c(Nc3ccccc3)n2)CC1 [Example B-5, 2-((1r,4r)-4-(methylsulfonamido)cyclohexylamino)-4-(phenylamino)pyrimidine-5-carboxamide]	< 200 nM
COc1ccc(Nc2ncc(C(N)=O)c(Nc3ccccc3)n2)cn1 [Example B-16, 2-(6-methoxypyridin-3-ylamino)-4-(phenylamino)pyrimidine-5-carboxamide]	< 200 nM
CNC(=O)[C@H]1CC[C@H](Nc2ncc(C(N)=O)c(Nc3ccccc3)n2)CC1 [Example B-8, 2-((1r,4r)-4-(methylcarbamoyl)cyclohexylamino)-4-(phenylamino)pyrimidine-5-carboxamide]	< 200 nM

Same assay, conditions: Table 3; JNK1 IC50 activity level; read-out: Act. Level

Structure (SMILES)	IC50
CCO[C@H]1CC[C@H](Nc2ncc(C#N)c(NC3CCOCC3)n2)CC1 [Example C-21, 2-((1r,4r)-4-ethoxycyclohexylamino)-4-(tetrahydro-2H-pyran-4-ylamino)pyrimidine-5-carbonitrile]	1000 to 10000 nM
CO[C@H]1CC[C@H](Nc2ncc(C#N)c(N[C@H]3CCCC[C@@](C)(O)C3)n2)CC1 [Example C-52, 4-((1S,3R)-3-hydroxy-3-methylcycloheptylamino)-2-((1r,4S)-4-methoxycyclohexylamino) pyrimidine-5-carbonitrile]	< 200 nM
CCO[C@H]1CC[C@H](Nc2ncc(C#N)c(NC3CCCCC3)n2)CC1 [Example C-20, 4-(cyclohexylamino)-2-((1r,4r)-4-ethoxycyclohexylamino) pyrimidine-5-carbonitrile]	200 to 800 nM

Same assay, conditions: one or more of the JNK1 biochemical assays; read-out: Act. Level (JNK1 IC50 activity level)

Structure (SMILES)	IC50
CCCC(C)(C)Nc1nc(N[C@H]2CC[C@H](OCC)CC2)ncc1C(N)=O [Example 391, 2-((1r,4r)-4-ethoxycyclohexylamino)-4-(2-methylpentan-2-ylamino)pyrimidine-5-carboxamide]	< 200 nM
C[C@@H]1CC[C@@H](Nc2nc(NC3(C)CCC3)ncc2C(N)=O)C[C@H]1O [Example 287, 4-((1R,3R,4R)-3-hydroxy-4-methylcyclohexylamino)-2-(1-methylcyclobutylamino)pyrimidine-5-carboxamide]	< 200 nM
CO[C@H]1CC[C@H](Nc2ncc(C(N)=O)c(NC3(C)CCCC3)n2)CC1 [Example 473]	< 200 nM
CO[C@H]1CC[C@H](Nc2ncc(C(N)=O)c(NC3CCC3C)n2)CC1 (stereo partly shown) [Example 243, 2-((1r,4r)-4-methoxycyclohexylamino)-4-(2-methylcyclobutylamino)pyrimidine-5-carboxamide]	< 200 nM
NC(=O)c1cnc(NC2CCC2)nc1N[C@@H]1CCCC[C@H](O)C1 [Example 339, 2-(cyclobutylamino)-4-((1R,3S)-3-hydroxycycloheptylamino)pyrimidine-5-carboxamide]	< 200 nM
C[C@]1(O)CCC[C@@H](Nc2nc(NC3CC3)ncc2C(N)=O)C1 [Example 378, 2-(cyclopropylamino)-4-((1R,3S)-3-hydroxy-3-methylcyclohexylamino)pyrimidine-5-carboxamide]	< 200 nM
CO[C@H]1CC[C@H](Nc2ncc(C(N)=O)c(NC(C)(C)C(C)C)n2)CC1 [Example 274, 4-(2,3-dimethylbutan-2-ylamino)-2-((1r,4r)-4-methoxycyclohexylamino)pyrimidine-5-carboxamide]	< 200 nM
CCO[C@H]1CC[C@H](Nc2ncc(C(N)=O)c(N[C@H]3C[C@H](C)C3)n2)CC1 [Example 313, 2-((1r,4r)-4-ethoxycyclohexylamino)-4-((1r,3r)-3-methylcyclobutylamino)pyrimidine-5-carboxamide]	< 200 nM
C[C@@H]1CC[C@@H](Nc2nc(N[C@H]3CC[C@H](OC4CC4)CC3)ncc2C(N)=O)C[C@H]1O [Example 492, 2-((1r,4R)-4-cyclopropoxycyclohexylamino)-4-((1R,3R,4R)-3-hydroxy-4-methylcyclohexylamino)pyrimidine-5-carboxamide]	< 200 nM
C[C@@H]1CC[C@@H](Nc2nc(NC(C)(C)C3CC3)ncc2C(N)=O)C[C@H]1O [Example 397, 2-(2-cyclopropylpropan-2-ylamino)-4-((1R,3R,4R)-3-hydroxy-4-methylcyclohexylamino)pyrimidine-5-carboxamide]	< 200 nM
CC(C)(C)Nc1ncc(C(N)=O)c(N[C@@H]2CCCOC2)n1 [Example 236, (R)-2-(tert-butylamino)-4-(tetrahydro-2H-pyran-3-ylamino)pyrimidine-5-carboxamide]	200 to 800 nM
C[C@@H](Nc1nc(N[C@H]2CC[C@H](O)CC2)ncc1C(N)=O)C1CC1 [Example 261, 4-((R)-1-cyclopropylethylamino)-2-((1r,4R)-4-hydroxycyclohexylamino)pyrimidine-5-carboxamide]	< 200 nM
CC(C)(C)Nc1nc(N[C@@H]2CCCC[C@H](O)C2)ncc1C(N)=O [Example 376, 4-(tert-butylamino)-2-((1R,3S)-3-hydroxycycloheptylamino)pyrimidine-5-carboxamide]	< 200 nM
CC1(Nc2ncc(C(N)=O)c(NC3CCC(C)(C)C(O)C3)n2)CC1 (stereo not shown) [Example 431, 4-(3-hydroxy-4,4-dimethylcyclohexylamino)-2-(1-methylcyclopropylamino)pyrimidine-5-carboxamide]	< 200 nM

Same assay, conditions: tested in one or more of the JNK1 biochemical assays; read-out: Act. Level (JNK1 biochemical assay IC50 activity level)

Structure (SMILES)	IC50
CCC(=O)N[C@H]1CC[C@@H](Nc2nc(N[C@@H](C)C3CCCCC3)ncc2C(N)=O)CC1 [Example A-124, 2-((S)-1-cyclohexylethylamino)-4-((1s,4R)-4-propionamidocyclohexylamino)pyrimidine-5-carboxamide]	< 200 nM
CCO[C@H]1CC[C@H](Nc2ncc(C(N)=O)c(N[C@@H]3CCC[C@](C)(O)C3)n2)CC1 [Example A-157, 2-((1r,4R)-4-ethoxycyclohexylamino)-4-((1R,3S)-3-hydroxy-3-methylcyclohexylamino)pyrimidine-5-carboxamide]	< 200 nM
CC(C)Nc1nc(N[C@H]2CC[C@H](OCC(F)(F)F)CC2)ncc1C(N)=O [Example A-1, 4-(isopropylamino)-2-((1r,4r)-4-(2,2,2-trifluoroethoxy)cyclohexylamino)pyrimidine-5-carboxamide]	< 200 nM
CO[C@@H]1CCC[C@H](Nc2ncc(C(N)=O)c(N[C@@H]3CCC[C@H](O)C3)n2)CC1 [Example A-162, 4-((1R,3S)-3-hydroxycyclohexylamino)-2-((1S,4R)-4-methoxycycloheptylamino)pyrimidine-5-carboxamide]	< 200 nM
CC(C)Nc1ncc(C(N)=O)c(N[C@@H]2CCC[C@H](O)C2)n1 [Example A-51, 4-((1R,3S)-3-hydroxycyclohexylamino)-2-(isopropylamino)pyrimidine-5-carboxamide]	< 200 nM
C[C@H](Nc1ncc(C(N)=O)c(N[C@H]2CC[C@@H](O)CC2)n1)C1CCCCC1 [Example A-125, 2-((S)-1-cyclohexylethylamino)-4-((1s,4R)-4-hydroxycyclohexylamino)pyrimidine-5-carboxamide]	< 200 nM
CO[C@H]1CC[C@H](Nc2ncc(C(N)=O)c(N[C@@H]3CC[C@H](O)C3)n2)CC1 [Example A-46, 4-((1R,3S)-3-hydroxycyclopentylamino)-2-((1r,4R)-4-methoxycyclohexylamino)pyrimidine-5-carboxamide]	< 200 nM
CO[C@H]1CC[C@H](Nc2ncc(C(N)=O)c(N[C@H]3CCC[C@H]3CO)n2)CC1 [Example A-37, 4-((1S,2R)-2-(hydroxymethyl)cyclopentylamino)-2-((1r,4S)-4-methoxycyclohexylamino)pyrimidine-5-carboxamide]	200 to 800 nM
CCC(=O)N1CCC(Nc2ncc(C(N)=O)c(N[C@H]3CC[C@@H](O)CC3)n2)CC1 [Example A-89, 4-((1s,4s)-4-hydroxycyclohexylamino)-2-(1-propionylpiperidin-4-ylamino)pyrimidine-5-carboxamide]	< 200 nM
CO[C@H]1CC[C@H](Nc2ncc(C(N)=O)c(N[C@H]3CC[C@H](NC(C)=O)CC3)n2)CC1 [Example A-38, 4-((1r,4r)-4-acetamidocyclohexylamino)-2-((1r,4r)-4-methoxycyclohexylamino)pyrimidine-5-carboxamide]	< 200 nM
COC[C@H]1CC[C@H](Nc2ncc(C(N)=O)c(NC3CCN(C(C)=O)CC3)n2)CC1 [Example A-82, 4-(1-acetylpiperidin-4-ylamino)-2-((1r,4r)-4-(methoxymethyl)cyclohexylamino)pyrimidine-5-carboxamide]	200 to 800 nM
NC(=O)c1cnc(N[C@H]2CCCOC2)nc1N[C@@H]1CCC[C@H](O)C1 [Example A-52, 4-((1R,3S)-3-hydroxycyclohexylamino)-2-((S)-tetrahydro-2H-pyran-3-ylamino)pyrimidine-5-carboxamide]	< 200 nM
CO[C@H]1CC[C@H](Nc2ncc(C(N)=O)c(N[C@H]3CC[C@@H](N)CC3)n2)CC1 [Example A-120, 4-((1s,4s)-4-aminocyclohexylamino)-2-((1r,4r)-4-methoxycyclohexylamino)pyrimidine-5-carboxamide]	< 200 nM
NC(=O)c1cnc(N[C@H]2CC[C@H](OCCF)CC2)nc1N[C@H]1CCC[C@@H]1O [Example A-75, 2-((1r,4S)-4-(2-fluoroethoxy)cyclohexylamino)-4-((1S,2S)-2-hydroxycyclopentylamino)pyrimidine-5-carboxamide]	< 200 nM
CC(C)Nc1nc(NC2CCC(F)(F)CC2)ncc1C(N)=O [Example A-3, 2-(4,4-difluorocyclohexylamino)-4-(isopropylamino)pyrimidine-5-carboxamide]	< 200 nM
